The structures appear in SMILES notation.

For experiment [1], the target named is T1, HCV polymerase (NS5B) type 1b (Hepatitis C virus genotype 1b, UniProt P26663).
T1 construct: a region encoding NS5B (J Virol 1991 March, 65(3), 1105-13, 544 amino acids after deletion of 47 amino acids on the C-terminal); 6xHis (C); made in house; host or cells: Escherichia coli
In words: Assay of enzyme (HCV polymerase) inhibitory activity, type 1b enzyme. Particulars: HCV polymerase inhibitory activity IC50, 1b, type 1b enzyme. It counts as biochemical, HCV BK strain (type 1b). The method in brief:
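His-tagged, C-terminally truncated NS5B (BK strain, 1b; 0.5 μg/ml) incubated with compound 60 min at 25 °C on 3′UTR-derived substrate RNA (5 μg/ml), 50 μM ATP/GTP/CTP, 2 μM UTP plus [3H]UTP, pH 7.5. Acid-precipitated RNA counted; IC50 from radioactivity with and without compound.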

Experiment [2] concerns the target T2, HCV polymerase (NS5B) type 1a (Hepatitis C virus genotype 1a, UniProt P26664).
T2 construct: made in house; host or cells: Escherichia coli (by the 'similar method' of the 1b enzyme)
In words: Assay of enzyme (HCV polymerase) inhibitory activity, type 1a enzyme. The experiment is classed as biochemical, HCV type 1a (cloned from the blood of patients). The settings on record: HCV polymerase inhibitory activity IC50, 1a, type 1a enzyme. The method in brief:
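His-tagged NS5B, C-terminal 47 residues deleted, type 1a at 1.5 μg/ml, with 5 μg/ml HCV 3′UTR substrate RNA, 50 μM ATP/GTP/CTP, 2 μM UTP plus [3H]UTP, pH 7.5 Tris, 5 mM MgCl2; 60 min at 25° C. TCA-precipitated RNA counted by scintillation; IC50 from radioactivity with vs. without compound.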

A word on the IC50: it is the concentration needed to halve the response being measured. A high value points to lower potency. Consider `CCCc1ccc(CNC(=O)[C@H]2CN(c3ccc(C(=O)O)c(C)n3)CCN2S(=O)(=O)c2ccc(OC(F)(F)F)cc2)cc1` [Example 822, 2-methyl-6-[(R)-3-(4-propyl-benzylcarbamoyl)-4-(4-trifluoromethoxy-benzenesulfonyl)-piperazin-1-yl]-nicotinic acid], for which the IC50 in experiment [1] and in experiment [2] was < 100 nM in each case.
Take `CCCc1ccc(CNC(=O)[C@H]2CN(c3nc(C)c(C(=O)O)cc3F)CCN2S(=O)(=O)c2ccc(OC(F)(F)F)cc2)cc1` [Example 823, 5-fluoro-2-methyl-6-[(R)-3-(4-propyl-benzylcarbamoyl)-4-(4-trifluoromethoxy-benzenesulfonyl)-piperazin-1-yl]-nicotinic acid]: the IC50 in experiment [1] and in experiment [2] was 100 to 1000 nM throughout.
Turning to `CCCc1ccc(CNC(=O)[C@H]2CN(c3cnc4cncc(C(=O)O)c4n3)CCN2S(=O)(=O)c2ccc(OC(F)(F)F)cc2)cc1` [Example 824, 2-[(R)-3-(4-propyl-benzylcarbamoyl)-4-(4-trifluoromethoxy-benzenesulfonyl)-piperazin-1-yl]-pyrido[3,4-b]pyrazine-8-carboxylic acid], the IC50 in experiment [1] and in experiment [2] was < 100 nM each time.
As to `CCCc1ccc(CNC(=O)[C@H]2CN(c3nc4cn[nH]c(=O)c4s3)CCN2S(=O)(=O)c2ccc([N+](=O)[O-])cc2)cc1` [Example 825, (R)-1-(4-nitro-benzenesulfonyl)-4-(7-oxo-6,7-dihydro-thiazolo[4,5-d]pyridazin-2-yl)-piperazine-2-carboxylic acid 4-propyl-benzylamide], the IC50 in experiment [1] and in experiment [2] was < 100 nM throughout.
As for `CCCc1ccc(CNC(=O)[C@H]2CN(c3nc(C)c(CCC(=O)O)s3)CCN2S(=O)(=O)c2ccc(OC(F)(F)F)cc2)cc1` [Example 826, 3-{4-methyl-2-[(R)-3-(4-propyl-benzylcarbamoyl)-4-(4-trifluoromethoxy-benzenesulfonyl)-piperazin-1-yl]-thiazol-5-yl}-propionic acid], the IC50 in experiment [1] and in experiment [2] was < 100 nM throughout.
As to `CCCc1ccc(CNC(=O)[C@H]2CN(c3nc(C)c(S(N)(=O)=O)s3)CCN2S(=O)(=O)c2ccc(OC(F)(F)F)cc2)cc1` [Example 827, (R)-4-(4-methyl-5-sulfamoyl-thiazol-2-yl)-1-(4-trifluoromethoxy-benzenesulfonyl)-piperazine-2-carboxylic acid 4-propyl-benzylamide], the IC50 in experiment [1] and in experiment [2] was < 100 nM throughout.
In the case of `CCCc1ccc(CNC(=O)[C@H]2CN(c3nc(C)c(S(=O)(=O)NC)s3)CCN2S(=O)(=O)c2ccc(OC(F)(F)F)cc2)cc1` [Example 828, (R)-4-(4-methyl-5-methylsulfamoyl-thiazol-2-yl)-1-(4-trifluoromethoxy-benzenesulfonyl)-piperazine-2-carboxylic acid 4-propyl-benzylamide], the IC50 in experiment [1] and in experiment [2] was < 100 nM in each case.
With `CCCc1ccc(CNC(=O)[C@H]2CN(c3nc(C)c(S(=O)(=O)N(C)C)s3)CCN2S(=O)(=O)c2ccc(OC(F)(F)F)cc2)cc1` [Example 829, (R)-4-(5-dimethylsulfamoyl-4-methyl-thiazol-2-yl)-1-(4-trifluoromethoxy-benzenesulfonyl)-piperazine-2-carboxylic acid 4-propyl-benzylamide], the IC50 is < 100 nM in experiment [1] and 100 to 1000 nM in experiment [2].
Consider `CCCc1ccc(CNC(=O)[C@H]2CN(C(=O)Nc3ccccc3)CCN2S(=O)(=O)c2ccc(OC(F)(F)F)cc2)cc1` [Example 830, (R)-4-(4-trifluoromethoxy-benzenesulfonyl)-piperazine-1,3-dicarboxylic acid 1-phenylamide 3-(4-propyl-benzylamide)], for which the 50% inhibitory concentration (IC50) in experiment [1] was < 100 nM; in experiment [2], 100 to 1000 nM.
For `CCCc1ccc(CNC(=O)[C@H]2CN(C(=O)Nc3ccccc3C(=O)OC)CCN2S(=O)(=O)c2ccc(OC(F)(F)F)cc2)cc1` [Example 831, 2-{[(R)-3-(4-propyl-benzylcarbamoyl)-4-(4-trifluoromethoxy-benzenesulfonyl)-piperazine-1-carbonyl]-amino}-benzoic acid methyl ester], in that order: > 1000 nM and > 1000 nM.
For `CCCc1ccc(CNC(=O)[C@H]2CN(c3nc(C)c(S(=O)(=O)NC(C)=O)s3)CCN2S(=O)(=O)c2ccc(OC(F)(F)F)cc2)cc1` [Example 832, (R)-4-(5-acetylsulfamoyl-4-methyl-thiazol-2-yl)-1-(4-trifluoromethoxy-benzenesulfonyl)-piperazine-2-carboxylic acid 4-propyl-benzylamide], in that order: < 100 nM and < 100 nM.
Turning to `CCCc1ccc(CNC(=O)[C@H]2CN(C(=O)Nc3ccccc3OCc3ccccc3)CCN2S(=O)(=O)c2ccc(OC(F)(F)F)cc2)cc1` [Example 833, (R)-4-(4-trifluoromethoxy-benzenesulfonyl)-piperazine-1,3-dicarboxylic acid 1-[(2-benzyloxy-phenyl)-amide] 3-(4-propyl-benzylamide)], the IC50 in experiment [1] and in experiment [2] was > 1000 nM throughout.
Consider `CCCc1ccc(CNC(=O)[C@H]2CN(C(=O)Nc3ccccc3O)CCN2S(=O)(=O)c2ccc(OC(F)(F)F)cc2)cc1` [Example 834, (R)-4-(4-trifluoromethoxy-benzenesulfonyl)-piperazine-1,3-dicarboxylic acid 1-[(2-hydroxy-phenyl)-amide] 3-(4-propyl-benzylamide)], for which the IC50 in experiment [1] and in experiment [2] was 100 to 1000 nM throughout.
For `O=C(NCc1ccc(OC(F)(F)F)cc1)[C@H]1CN(c2nc3cn[nH]c(=O)c3s2)CCN1S(=O)(=O)c1ccc([N+](=O)[O-])cc1` [Example 835, (R)-1-(4-nitro-benzenesulfonyl)-4-(7-oxo-6,7-dihydro-thiazolo[4,5-d]pyridazin-2-yl)-piperazine-2-carboxylic acid 4-trifluoromethoxy-benzylamide], the IC50 in experiment [1] and in experiment [2] was < 100 nM throughout.
For `CCC(F)(F)c1ccc(CNC(=O)[C@H]2CN(c3cnc4cncc(C(=O)O)c4n3)CCN2S(=O)(=O)c2ccc(OC(F)(F)F)cc2)cc1` [Example 836, 2-[(R)-3-[4-(1,1-difluoro-propyl)-benzylcarbamoyl]-4-(4-trifluoromethoxy-benzenesulfonyl)-piperazin-1-yl]-pyrido[3,4-b]pyrazine-8-carboxylic acid], the IC50 in experiment [1] and in experiment [2] was < 100 nM throughout.
For `CCCc1ccc(CNC(=O)[C@H]2CN(C(=O)Nc3ccccc3C(=O)OCc3ccccc3)CCN2S(=O)(=O)c2ccc(OC(F)(F)F)cc2)cc1` [Example 837, 2-{[(R)-3-(4-propyl-benzylcarbamoyl)-4-(4-trifluoromethoxy-benzenesulfonyl)-piperazine-1-carbonyl]-amino}-benzoic acid benzyl ester], the IC50 in experiment [1] and in experiment [2] was > 1000 nM throughout.
Consider `CCCc1ccc(CNC(=O)[C@H]2CN(C(=O)Nc3ccccc3C(=O)O)CCN2S(=O)(=O)c2ccc(OC(F)(F)F)cc2)cc1` [Example 838, 2-{[(R)-3-(4-propyl-benzylcarbamoyl)-4-(4-trifluoromethoxy-benzenesulfonyl)-piperazine-1-carbonyl]-amino}-benzoic acid], for which the IC50 in experiment [1] and in experiment [2] was > 1000 nM each time.
